Experimental data reported in patent publication US20120107305A1, “Combination Therapy” (priority 2006, published 2012).

Tests used:
[1] = tested on: A431 human tumour xenografts; assay: A431 human vulval epidermoid carcinoma xenograft model; type: in vivo, female athymic mice (Swiss nu/nu); conditions: 20 days after randomisation; ZD6474 25 mg/kg/day p.o. once daily, bevacizumab 0.5 mg/kg i.p. twice a week; nude mice
Experimental: Experiments were conducted on female athymic mice (Swiss nu/nu genotype, ≧6 weeks of age). A431 human tumour xenografts were established in the experimental mice by injecting 1×10^7 cells per mouse, mixed in a ratio of 1:1 with Matrigel, subcutaneously in the dorsal flank in a volume of 100 μl. Tumour volumes were assessed at least twice weekly by bilateral Vernier calliper measurements. Mice were randomised into treatment groups when the tumour volume reached 0.2-0.4 cm^3 (day 0, this was after 7 days in Example 1 below).
Tumour growth inhibition from the start of treatment was assessed by comparison of the differences in tumour volume (median and geometric mean) between control and treated groups.
Control animals (Group I) received drug vehicles alone.

VEGF RTK = conditions: cited from earlier work
tumour models = conditions: once-daily oral administration; range of models; cited from earlier work

COc1cc2c(Nc3ccc(Br)cc3F)ncnc2cc1OCC1CCN(C)CC1 [ZD6474, 4-(4-bromo-2-fluoroanilino)-6-methoxy-7-(1-methylpiperidin-4-ylmethoxy)quinazoline]
A431 tumor volume, Geometric mean [1]: 0.149 cm^3
Inhibition of VEGF RTK (VEGF RTK): potent inhibitor
Anti-tumour activity (tumour models): broad-spectrum anti-tumour activity

Bevacizumab: recombinant humanised monoclonal antibody to the vascular endothelial growth factor ligand VEGF-A
A431 tumor volume, Geometric mean [1]: 0.553 cm^3
